Measured values published in US20240150339A1, “Compounds and Their Use as PDE4 Activators” (Mironid Limited, priority 2021, published 2024).

Columns and labels:
PDE4D5 = target: T1, PDE4D5 (Homo sapiens, UniProt Q08499); experiment: PDE assay, activation of full-length human PDE4D5 long form ([3H]cAMP radio-assay); type: biochemical; details: 30 μM test compound; mean % increase in counts over basal activity
T1 construct: Using Full-Length Human PDE4 Isoforms: Long Forms PDE4D5, PDE4C3, PDE4B1 and Short Form PDE4B2; made in house; cytosol fraction of the cell lysate, not purified
T1 sequence (Q08499 1-745 isoform Q08499-6): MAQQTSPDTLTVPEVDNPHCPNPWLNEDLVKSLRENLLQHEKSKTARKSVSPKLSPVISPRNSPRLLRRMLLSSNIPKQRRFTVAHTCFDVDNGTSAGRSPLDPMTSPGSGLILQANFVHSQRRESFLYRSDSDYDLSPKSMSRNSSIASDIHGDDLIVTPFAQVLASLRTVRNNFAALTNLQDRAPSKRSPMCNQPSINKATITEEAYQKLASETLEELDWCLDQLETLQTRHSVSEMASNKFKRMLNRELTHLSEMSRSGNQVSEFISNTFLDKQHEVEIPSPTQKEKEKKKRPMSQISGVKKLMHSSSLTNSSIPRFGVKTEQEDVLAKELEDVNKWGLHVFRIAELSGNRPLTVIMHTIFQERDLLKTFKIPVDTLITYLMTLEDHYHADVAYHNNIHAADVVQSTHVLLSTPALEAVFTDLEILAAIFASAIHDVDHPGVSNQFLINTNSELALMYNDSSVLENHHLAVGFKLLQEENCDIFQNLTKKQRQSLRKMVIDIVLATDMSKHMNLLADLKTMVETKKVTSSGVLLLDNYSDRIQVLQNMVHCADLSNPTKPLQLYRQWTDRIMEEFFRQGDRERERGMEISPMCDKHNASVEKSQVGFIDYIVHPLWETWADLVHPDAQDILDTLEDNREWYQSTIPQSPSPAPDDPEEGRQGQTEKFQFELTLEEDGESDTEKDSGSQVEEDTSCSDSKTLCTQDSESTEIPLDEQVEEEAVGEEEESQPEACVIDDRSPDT
Outline: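 Cytosol (100,000 g) from HEK293 cells overexpressing full-length human PDE4 was preincubated with compound for 15 min at room temperature in 10 mM Tris/5 mM MgCl2. Reaction ran with 1 μM [3H]cAMP for 10 min at 30° C, then snake venom conversion, Dowex separation and scintillation counting; activity reported as % increase.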

PDE4C3 = target: T2, PDE4C3 (Homo sapiens, UniProt Q08493); experiment: PDE assay, activation of full-length human PDE4C3 long form ([3H]cAMP radio-assay); type: biochemical; details: 30 μM test compound; mean % increase in counts over basal activity
T2 construct: Using Full-Length Human PDE4 Isoforms: Long Forms PDE4D5, PDE4C3, PDE4B1 and Short Form PDE4B2; made in house; host or cells: HEK 293 transfected with pcDNA3.1 or pDEST PDE4 expression vector; cytosol fraction of the lysate by analogy to PDE4D5
T2 sequence (Q08493 1-680 isoform Q08493-3): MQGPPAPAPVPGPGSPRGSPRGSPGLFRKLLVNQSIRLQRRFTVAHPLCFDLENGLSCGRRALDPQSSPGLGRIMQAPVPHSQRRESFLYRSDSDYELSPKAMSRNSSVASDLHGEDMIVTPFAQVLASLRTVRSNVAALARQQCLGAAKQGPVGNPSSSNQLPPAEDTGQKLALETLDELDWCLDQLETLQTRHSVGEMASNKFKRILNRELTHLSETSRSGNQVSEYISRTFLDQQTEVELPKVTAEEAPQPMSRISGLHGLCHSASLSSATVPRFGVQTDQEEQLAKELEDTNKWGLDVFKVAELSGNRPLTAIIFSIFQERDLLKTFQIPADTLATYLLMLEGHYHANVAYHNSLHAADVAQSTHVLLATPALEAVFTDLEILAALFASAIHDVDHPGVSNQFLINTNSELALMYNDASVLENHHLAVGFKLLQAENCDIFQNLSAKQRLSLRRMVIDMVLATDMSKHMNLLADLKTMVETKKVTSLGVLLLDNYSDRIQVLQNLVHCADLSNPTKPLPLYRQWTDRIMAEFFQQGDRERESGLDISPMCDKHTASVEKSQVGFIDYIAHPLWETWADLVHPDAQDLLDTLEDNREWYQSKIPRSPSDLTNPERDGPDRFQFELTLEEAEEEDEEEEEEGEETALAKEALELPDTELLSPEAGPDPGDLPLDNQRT
Source text: Experiment 1: Measurement of Modulation of Enzyme Activity by PDE4 Long Form Activators of the Present Invention Using Full-Length Human PDE4 Isoforms: Long Forms PDE4D5, PDE4C3, PDE4B1 and Short Form PDE4B2
(Marchmont, R. J. and Houslay, M. D. Biochem. J. 187: 381-92, 1980)
For transient transfection of exogenous PDE4 long isoforms, HEK 293 cells were transfected with pcDNA3.1 or pDEST™ PDE4 expression vectors using Lipofectamine LTX/Plus reagent (Invitrogen) as outlined by the manufacturer. […]
HEK-PDE4D5 cells were seeded out in 100 mm plates and incubated at 37° C. in an atmosphere of 5% CO2, 95% air. Cell lysates were prepared using KHEM buffer [50 mM KCl, 10 mM EGTA, 50 mM HEPES (pH 7.2), 1.92 mM MgCl2].
To prepare the cell lysates, the 100 mm plates containing the cells were placed on ice and washed with ice-cold PBS (phosphate buffered saline, pH 7.4). KHEM buffer (500 μl) was added to the cells. Cells were then scraped off the plate and triturated using a needle (BD Microlance™ 0.8, 40 mm). The lysed cells were then centrifuged at 2000 rpm for 10 minutes to remove cell debris and the supernatant (cell lysate containing recombinant PDE4D5) was transferred to a fresh tube and kept on ice.
The cell lysate containing recombinant PDE4D5 was transferred into a centrifuge tube and placed into an ultracentrifuge (BECKMAN COULTER) and spun at high speed (100,000 g) for 30 minutes at 4° C. The cytosol fraction was then collected and its protein amount determined using a BCA protein assay.
PDE assays were performed in thin walled V-bottomed 96-well plates. The assays were performed at a final concentration of 10 mM Tris/5 mM MgCl2 μlus PDE4D5 cell lysate cytosol fraction, containing over-expressed PDE4D5, with and without test compound. The lysate/compound mix were incubated together for 15 min at room temperature on an orbital shaker prior to addition of [^3H] cAMP (final concentration 1 μM [^3H] cAMP; Perkin Elmer) to a final volume of 50 μl per reaction. The reactions were then incubated for 10 minutes at 30° C., terminated by heating for 2 min at 95° C. and allowed to cool. Snake venom (12.5 μl of 1 mg/ml; Crotalus atrox, Sigma) was then added and the plates were agitated and incubated for a further 15 minutes at 30° C. Dowex ion exchange resin (Sigma, chloride form, 200-400 mesh; 200 μl; prepared as a 1:1 Dowex: water stock, thoroughly re-suspended and diluted 2:1 with ethanol) was then added to each well and the plates incubated for 15 min at room temperature on an orbital shaker ensuring sufficient agitation for resin suspension (550 RPM). The reaction mixture was then transferred to a 96 well filter plate (Millipore; […] pore size) and filtered into a receiving 96-well plate to remove the dowex suspension. 30 μL of the filtered solution was then transferred to the wells of an Opti-plate (Perkin Elmer) 96 well assay plate and 120 μl of Microscint 40 scintillation fluid was added. The plate was then placed on an orbital shaker for 10 min at high speed (900 RPM) to mix the sample with scintillation fluid prior to quantitation using a plate based scintillation counter (Top-Count).
The % increase in counts in the presence of test compound at a particular concentration indicates the % increase in enzyme activity at that concentration.

[1] = test system: PTH-induced cAMP elevation in urine; experiment: In vivo model of hyperparathyroidism: PTH-induced cAMP elevation in urine in the anaesthetised rat; details: i.v. infusion, PTH challenge, urine collected from 90 to 120 min, result in words
Source text: Within the kidney, the binding of parathyroid hormone (PTH) to PTH receptors results in the Gas-mediated elevation of intracellular cAMP. This increase of intracellular cAMP results in extrusion of cAMP to the urine (Yates et al., J Clin Invest 81: 932-938, 1988). This experiment is based upon a modified Ellsworth-Howard assay (Kruse, K. and Kracht, U., European Journal of Pediatrics 146: 373-377, 1987) and conducted in anaesthetized rats. In this experiment, rats were anaesthetized using isoflurane and catheterised to allow the collection of urine from the bladder. After an initial stabilization period, test compounds were administered by i.v. infusion (modelled to steady state) from time 0-120 min. PTH challenge infusion (33 ug/kg/hour) was started after 60 min of test compound infusion and sustained for one hour (60-120 min). Urine collection was conducted in 30-minute periods. Urine cAMP levels were assessed by ELISA (R&D systems). Urine samples were prepared for analysis as per the manufacturer's instructions. A standard curve for cAMP was assayed for each experiment and samples were assessed using a standard dilution range of 1:2, 1:4, 1:8 and 1:16, ensuring that the resulting data remained on the linear portion of the standard curve. […] Urine cAMP concentration remained below 50,000 pmol/mL. […]

- activation at 30 µM (PDE4D5): 109%
- activation at 30 µM (PDE4C3): 105%
SMILES: Cc1ncccc1-c1nc2ccc(C(=O)N[C@H]3CCOc4ccccc43)cc2s1 [Example 7, (S)-N-(chroman-4-yl)-2-(2-methylpyridin-3-yl)benzo[d]thiazole-6-carboxamide]
- Inhibition of PTH-induced cAMP elevation in rat urine (FIG. 3) [1]: inhibition
